Positions of bridges follow the written chain, without caps; N, C: chain ends. No end group written: not given here.
Tested on: rat DRG sensory neurons
Test: Number of DRG neurons (cytotoxicity, high content imaging)
Assay type: cell-based
Conditions: also RAW264.7 and HMEC
Experimental: We initially determined the cytotoxic effects of xibalbins on primary sensory neurons from adult male rats cultured in vitro [2]. […] We exposed overnight cultures of dissociated rat dorsal root ganglions (DRGs) to xibalbins for 5 and 30 min. Subsequently, all cells were fixed and immunocytochemically stained for the neuronal marker UCHL1 to identify neurons. The entire culture was digitally scanned using high content imaging (HCI) microscopy, and cell numbers, UCHL1 staining per cell, and cell size was analyzed. No loss of neurons was induced by either of the tested xibalbins, even at the highest concentration of 0.8 µg/µL (Additional File 3: Figure S2). […] We further investigated the potential toxicity of xibalbins in monocyte/macrophage-like cells (RAW264.7) and human microvascular endothelial cells (HMEC); see Additional File 5: Figure S4 The viability of RAW264.7 cells was detected using a formazan-based assay, while the proliferation of HMECs was assessed by measuring the number of crystal violet-stained cells.
Male Sprague Dawley rats (250–400 g, 8–16 weeks old) were obtained from Envigo. […]
Stained cells were scanned with a CX7-LZR (Thermo Fisher Scientific) HCI system. Images were acquired with a 10 × objective and analyzed using the cellomics software package (Thermo Fisher Scientific). […] The resulting objects were quantified for average object intensity in all other color channels. […]

Row | Sequence | cytolytic or cytotoxic activity
1 | RLFCIRHHKYCGHRPKRCCSGLFCRCNTFGTNCRCQSKGALGKLI (disulfide 4-19, 11-24, 18-35, 26-33) [xib1] | do not show overt cytolytic or cytotoxic activity
2 | KRSCIRRFGRCDHRPNDCCYNSSCRCNLWGSNCRCQRMGLFQKWGK (disulfide 4-19, 11-24, 18-35, 26-33) [xib13] | do not show overt cytolytic or cytotoxic activity
